Measured values from patent US20080009418A1, “Selective Inhibitors” (Alchemia LTD., priority 2004, published 2008).

What was measured:
Settings in all cases: compound at 10 μM
Human opioid (ORL1) = target: T1, Human opioid (ORL1) (Homo sapiens, UniProt P41146); assay: Radioligand binding, human opioid ORL1 membranes, FlashPlate, [125I]-Nociceptin
T1 construct: purchased Perkin Elmer Biosignal
Method in brief: (§1)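 Cloned human receptor membranes were coated onto FlashPlate wells and incubated with radioligand and compound (added from a 0.5 mM DMSO daughter plate) for 1 hour at room temperature in the dark. Scintillation counting gave percent inhibition, with DMSO defining total and reference ligand defining non-specific binding.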

Human Melanocortin (MC3) = target: T2, Human Melanocortin (MC3) (Homo sapiens, UniProt P41968); assay: Radioligand binding, human melanocortin MC3 membranes, FlashPlate, [125I]-NDP-αMSH
T2 construct: purchased Perkin Elmer Biosignal
Method in brief: as §1

Human melanocortin (MC5) = target: T3, Human melanocortin (MC5) (Homo sapiens, UniProt P33032); assay: Radioligand binding, human melanocortin MC5 membranes, FlashPlate, [125I]-NDP-αMSH
T3 construct: purchased Perkin Elmer Biosignal
Method in brief: as §1

Human neurokinin (NK1) = target: T4, Human neurokinin (NK1) (Homo sapiens, UniProt P25103); assay: Radioligand binding, human neurokinin NK1 membranes, filtration, [125I]-Substance P
T4 construct: purchased Perkin Elmer Biosignal
Method in brief: (§2)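 Membranes from cloned human receptors were incubated with compound and radioligand for 1 hour at room temperature. Bound ligand was collected on 0.3% PEI-soaked filters, washed with cold 50 mM Tris-HCl pH 7.4, and counted by scintillation. Percent inhibition was computed against DMSO totals and reference-ligand nonspecific wells.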

Mouse urotensin (mUR2) = target: T5, Mouse urotensin (mUR2) (Mus musculus, UniProt Q8VIH9); assay: Radioligand binding, mouse urotensin mUR2 membranes, FlashPlate, [125I]-Urotensin II
T5 construct: purchased Perkin Elmer Biosignal
T5 sequence (Q8VIH9 1-385): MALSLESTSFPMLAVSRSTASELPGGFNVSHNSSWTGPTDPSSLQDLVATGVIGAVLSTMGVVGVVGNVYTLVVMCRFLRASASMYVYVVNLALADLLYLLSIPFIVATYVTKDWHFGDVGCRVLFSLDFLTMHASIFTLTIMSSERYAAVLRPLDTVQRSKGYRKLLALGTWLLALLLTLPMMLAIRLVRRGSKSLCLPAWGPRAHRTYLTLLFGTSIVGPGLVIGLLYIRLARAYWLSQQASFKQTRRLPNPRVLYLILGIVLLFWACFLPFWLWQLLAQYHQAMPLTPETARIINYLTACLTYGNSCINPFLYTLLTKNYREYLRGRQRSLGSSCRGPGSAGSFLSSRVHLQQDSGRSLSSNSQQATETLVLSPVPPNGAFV
Method in brief: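 Cloned mouse urotensin (mUR2) receptor membranes from Perkin Elmer Biosignal were immobilized in FlashPlate microplates using a proprietary coating. Each well got 19.5 μl buffer, then 0.5 μl of DMSO, reference ligand, or compound. Adding 5 μl of [125I]-Urotensin II, diluted to 5× final concentration in binding buffer, started binding. Plates were sealed with TopSeal-A and incubated 1 hour at room temperature in the dark. Wells were counted for 30 seconds each on a TopCount after a 60-second delay, and percentage inhibition was calculated.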

Human Melanocortin (MC4) = target: T6, Human Melanocortin (MC4) (Homo sapiens, UniProt P32245); assay: Radioligand binding, human melanocortin MC4 membranes, FlashPlate, [125I]-NDP-αMSH
T6 construct: purchased Perkin Elmer Biosignal
Method in brief: as §1

Human δ-opioid (DOP) = target: T7, Human δ-opioid (DOP) (Homo sapiens, UniProt P41143); assay: Radioligand binding, human δ-opioid (DOP) membranes, FlashPlate, [3H]-Bremazocine
T7 construct: purchased Perkin Elmer Biosignal
Method in brief: as §1

Human μ-opioid (MOP) = target: T8, Human μ-opioid (MOP) (Homo sapiens, UniProt P35372); assay: Radioligand binding, human μ-opioid (MOP) membranes, FlashPlate, [3H]-Naloxone
T8 construct: purchased Perkin Elmer Biosignal
Method in brief: as §1

[1] = target: T9, Human melanin-concentrating hormone (MCH1) (Homo sapiens, UniProt Q99705); assay: Radioligand binding, human melanin-concentrating hormone MCH1 membranes, FlashPlate, [125I]-S36057
T9 construct: purchased Perkin Elmer Biosignal
Method in brief: as §1

Human κ-Opioid (KOP) = target: T10, Human κ-Opioid (KOP) (Homo sapiens, UniProt P41145); assay: Radioligand binding, human κ-opioid (KOP) membranes, filtration, [3H]-Diprenorphine
T10 construct: purchased Perkin Elmer Biosignal
Method in brief: as §2

[2] = target: T11, Human neuropeptide Y (NPY-Y1) (Homo sapiens, UniProt P25929); assay: Radioligand binding, human neuropeptide Y NPY-Y1 membranes, FlashPlate, [125I]-PYY
T11 construct: purchased Perkin Elmer Biosignal
T11 sequence (P25929 1-384): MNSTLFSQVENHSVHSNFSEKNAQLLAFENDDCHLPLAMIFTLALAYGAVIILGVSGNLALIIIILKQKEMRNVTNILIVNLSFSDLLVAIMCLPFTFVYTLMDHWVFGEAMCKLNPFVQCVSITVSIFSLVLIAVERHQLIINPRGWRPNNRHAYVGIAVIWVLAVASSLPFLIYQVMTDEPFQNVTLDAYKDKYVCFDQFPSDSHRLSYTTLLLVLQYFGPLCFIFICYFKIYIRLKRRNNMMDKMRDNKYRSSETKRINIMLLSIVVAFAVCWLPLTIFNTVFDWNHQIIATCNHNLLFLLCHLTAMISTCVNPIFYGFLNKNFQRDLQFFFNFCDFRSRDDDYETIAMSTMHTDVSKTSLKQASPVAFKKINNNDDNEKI
Method in brief: as §1

[3] = [125I]-Urotensin II, FlashPlate

T1 sequence (P41146 whole entry): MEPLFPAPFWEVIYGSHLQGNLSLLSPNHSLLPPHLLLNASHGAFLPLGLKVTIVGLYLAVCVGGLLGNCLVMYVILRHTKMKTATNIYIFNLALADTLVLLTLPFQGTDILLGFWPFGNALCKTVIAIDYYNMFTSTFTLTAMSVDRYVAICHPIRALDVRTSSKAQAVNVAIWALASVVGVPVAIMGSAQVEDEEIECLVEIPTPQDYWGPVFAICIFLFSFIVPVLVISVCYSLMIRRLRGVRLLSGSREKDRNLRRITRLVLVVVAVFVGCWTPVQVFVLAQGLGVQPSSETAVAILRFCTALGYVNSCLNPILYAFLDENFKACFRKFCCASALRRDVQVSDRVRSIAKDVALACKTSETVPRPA
T4 sequence (P25103 whole entry): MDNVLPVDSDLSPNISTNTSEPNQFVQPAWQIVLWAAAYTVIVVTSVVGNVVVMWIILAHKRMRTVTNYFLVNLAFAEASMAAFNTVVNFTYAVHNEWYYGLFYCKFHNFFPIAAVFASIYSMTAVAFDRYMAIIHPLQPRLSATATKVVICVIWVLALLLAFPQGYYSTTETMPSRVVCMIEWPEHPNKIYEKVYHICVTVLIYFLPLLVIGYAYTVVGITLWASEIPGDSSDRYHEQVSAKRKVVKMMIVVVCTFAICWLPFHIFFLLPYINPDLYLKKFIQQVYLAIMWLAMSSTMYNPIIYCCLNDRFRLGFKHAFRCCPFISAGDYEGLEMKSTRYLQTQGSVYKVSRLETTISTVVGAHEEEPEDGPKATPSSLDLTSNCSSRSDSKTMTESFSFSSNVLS
T9 sequence (Q99705 whole entry): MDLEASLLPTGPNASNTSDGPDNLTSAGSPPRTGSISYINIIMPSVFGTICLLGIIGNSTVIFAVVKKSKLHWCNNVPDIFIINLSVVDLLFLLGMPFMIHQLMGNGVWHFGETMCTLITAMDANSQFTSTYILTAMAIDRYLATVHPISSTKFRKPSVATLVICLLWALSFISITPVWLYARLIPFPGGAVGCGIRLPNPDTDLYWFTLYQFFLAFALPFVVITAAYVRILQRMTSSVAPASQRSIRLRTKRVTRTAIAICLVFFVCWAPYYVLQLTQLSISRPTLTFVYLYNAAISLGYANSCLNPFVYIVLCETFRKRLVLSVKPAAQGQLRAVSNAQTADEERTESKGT
T2 sequence (P41968 whole entry): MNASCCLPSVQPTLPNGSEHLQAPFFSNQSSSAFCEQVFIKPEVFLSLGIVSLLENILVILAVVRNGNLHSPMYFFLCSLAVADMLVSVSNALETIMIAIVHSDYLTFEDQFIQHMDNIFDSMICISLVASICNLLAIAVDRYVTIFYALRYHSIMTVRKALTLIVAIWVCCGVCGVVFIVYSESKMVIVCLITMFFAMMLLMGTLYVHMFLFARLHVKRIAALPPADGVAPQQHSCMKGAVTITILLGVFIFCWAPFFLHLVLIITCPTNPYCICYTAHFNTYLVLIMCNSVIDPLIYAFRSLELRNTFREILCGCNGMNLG
T6 sequence (P32245 whole entry): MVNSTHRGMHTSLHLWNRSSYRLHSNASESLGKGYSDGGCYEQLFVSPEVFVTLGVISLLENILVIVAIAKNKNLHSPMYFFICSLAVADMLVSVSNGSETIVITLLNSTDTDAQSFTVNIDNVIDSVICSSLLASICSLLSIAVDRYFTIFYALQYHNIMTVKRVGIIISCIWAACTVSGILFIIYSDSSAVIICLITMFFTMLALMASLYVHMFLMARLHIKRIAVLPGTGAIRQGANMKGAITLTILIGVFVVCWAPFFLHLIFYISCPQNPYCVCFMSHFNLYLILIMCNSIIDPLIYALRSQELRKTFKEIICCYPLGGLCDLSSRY
T8 sequence (P35372 whole entry): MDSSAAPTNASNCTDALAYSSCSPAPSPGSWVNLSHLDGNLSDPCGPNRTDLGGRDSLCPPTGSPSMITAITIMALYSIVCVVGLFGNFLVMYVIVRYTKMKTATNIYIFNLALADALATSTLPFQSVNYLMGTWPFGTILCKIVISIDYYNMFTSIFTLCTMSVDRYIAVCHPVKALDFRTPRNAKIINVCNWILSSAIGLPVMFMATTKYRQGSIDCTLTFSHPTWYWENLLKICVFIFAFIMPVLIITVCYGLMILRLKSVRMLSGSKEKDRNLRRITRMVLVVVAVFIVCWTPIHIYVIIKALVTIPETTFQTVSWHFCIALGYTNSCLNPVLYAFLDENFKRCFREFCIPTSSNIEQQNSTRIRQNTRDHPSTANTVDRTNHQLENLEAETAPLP
T7 sequence (P41143 whole entry): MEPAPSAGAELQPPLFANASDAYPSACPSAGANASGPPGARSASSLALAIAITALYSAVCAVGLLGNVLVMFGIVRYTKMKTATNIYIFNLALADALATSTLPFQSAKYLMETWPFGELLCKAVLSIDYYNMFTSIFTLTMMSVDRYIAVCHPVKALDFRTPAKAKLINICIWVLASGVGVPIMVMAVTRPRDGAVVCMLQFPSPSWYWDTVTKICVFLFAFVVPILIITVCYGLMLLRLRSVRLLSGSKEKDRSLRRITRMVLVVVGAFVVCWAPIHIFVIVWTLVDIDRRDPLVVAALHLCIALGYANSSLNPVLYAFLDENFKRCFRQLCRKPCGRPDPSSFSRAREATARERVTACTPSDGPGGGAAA
T10 sequence (P41145 whole entry): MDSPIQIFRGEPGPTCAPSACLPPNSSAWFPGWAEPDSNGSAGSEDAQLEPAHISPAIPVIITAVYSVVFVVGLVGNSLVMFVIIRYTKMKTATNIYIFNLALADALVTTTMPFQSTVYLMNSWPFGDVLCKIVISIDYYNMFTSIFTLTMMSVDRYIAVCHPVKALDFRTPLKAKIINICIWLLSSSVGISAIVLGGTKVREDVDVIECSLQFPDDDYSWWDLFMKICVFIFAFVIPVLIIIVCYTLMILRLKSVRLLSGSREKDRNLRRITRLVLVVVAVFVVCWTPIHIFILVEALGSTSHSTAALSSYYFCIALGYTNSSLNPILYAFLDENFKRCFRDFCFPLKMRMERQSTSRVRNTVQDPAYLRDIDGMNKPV
T3 sequence (P33032 whole entry): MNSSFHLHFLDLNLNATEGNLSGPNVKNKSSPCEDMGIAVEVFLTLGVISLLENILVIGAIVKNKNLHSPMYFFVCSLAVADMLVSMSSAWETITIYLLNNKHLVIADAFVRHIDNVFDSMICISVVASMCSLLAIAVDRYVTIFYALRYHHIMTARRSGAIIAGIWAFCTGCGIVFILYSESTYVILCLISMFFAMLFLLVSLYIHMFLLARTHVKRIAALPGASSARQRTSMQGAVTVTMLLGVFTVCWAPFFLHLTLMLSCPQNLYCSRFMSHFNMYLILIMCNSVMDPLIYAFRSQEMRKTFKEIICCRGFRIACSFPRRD

COCC1OC(OCc2ccc3ccccc3c2)C(NC(=O)CCCN)C(OCc2ccc(-c3ccccc3)cc2)C1O (stereo not shown) [compound 245]
A10: inhibition of radioligand binding (Human opioid (ORL1); [125I]-Nociceptin, FlashPlate): − (“−” indicates less than 50% inhibition at 10 μM)
A3: inhibition of radioligand binding (Human Melanocortin (MC3); [125I]-NDP-αMSH, FlashPlate): − (“−” indicates less than 50% inhibition at 10 μM)
A5: inhibition of radioligand binding (Human melanocortin (MC5); [125I]-NDP-αMSH, FlashPlate): − (“−” indicates less than 50% inhibition at 10 μM)
A8: inhibition of radioligand binding (Human neurokinin (NK1); [125I]-Substance P, filtration): + (“+” indicates greater than 50% inhibition at 10 μM)
A11: inhibition of radioligand binding (Mouse urotensin (mUR2); [3]): − (“−” indicates less than 50% inhibition at 10 μM)
A4: inhibition of radioligand binding (Human Melanocortin (MC4); [125I]-NDP-αMSH, FlashPlate): − (“−” indicates less than 50% inhibition at 10 μM)
A1: inhibition of radioligand binding (Human δ-opioid (DOP); [3H]-Bremazocine, FlashPlate): − (“−” indicates less than 50% inhibition at 10 μM)
A7: inhibition of radioligand binding (Human μ-opioid (MOP); [3H]-Naloxone, FlashPlate): − (“−” indicates less than 50% inhibition at 10 μM)
A6: inhibition of radioligand binding ([1]; [125I]-S36057, FlashPlate): − (“−” indicates less than 50% inhibition at 10 μM)
A2: inhibition of radioligand binding (Human κ-Opioid (KOP); [3H]-Diprenorphine, filtration): − (“−” indicates less than 50% inhibition at 10 μM)
A9: inhibition of radioligand binding ([2]; [125I]-PYY, FlashPlate): − (“−” indicates less than 50% inhibition at 10 μM)

CSC1OC(COCc2ccc(Cl)cc2)C(O)C(OCc2ccc(Cl)cc2)C1NC(=O)CNC(=N)N (stereo not shown) [compound 270]
A10: inhibition of radioligand binding (Human opioid (ORL1); [125I]-Nociceptin, FlashPlate): − (“−” indicates less than 50% inhibition at 10 μM)
A3: inhibition of radioligand binding (Human Melanocortin (MC3); [125I]-NDP-αMSH, FlashPlate): + (“+” indicates greater than 50% inhibition at 10 μM)
A5: inhibition of radioligand binding (Human melanocortin (MC5); [125I]-NDP-αMSH, FlashPlate): + (“+” indicates greater than 50% inhibition at 10 μM)
A8: inhibition of radioligand binding (Human neurokinin (NK1); [125I]-Substance P, filtration): + (“+” indicates greater than 50% inhibition at 10 μM)
A11: inhibition of radioligand binding (Mouse urotensin (mUR2); [3]): − (“−” indicates less than 50% inhibition at 10 μM)
A4: inhibition of radioligand binding (Human Melanocortin (MC4); [125I]-NDP-αMSH, FlashPlate): + (“+” indicates greater than 50% inhibition at 10 μM)
A1: inhibition of radioligand binding (Human δ-opioid (DOP); [3H]-Bremazocine, FlashPlate): − (“−” indicates less than 50% inhibition at 10 μM)
A7: inhibition of radioligand binding (Human μ-opioid (MOP); [3H]-Naloxone, FlashPlate): − (“−” indicates less than 50% inhibition at 10 μM)
A6: inhibition of radioligand binding ([1]; [125I]-S36057, FlashPlate): − (“−” indicates less than 50% inhibition at 10 μM)
A2: inhibition of radioligand binding (Human κ-Opioid (KOP); [3H]-Diprenorphine, filtration): − (“−” indicates less than 50% inhibition at 10 μM)
A9: inhibition of radioligand binding ([2]; [125I]-PYY, FlashPlate): − (“−” indicates less than 50% inhibition at 10 μM)

NCC1CCC(C(=O)NC2O[C@H](CO)[C@@H](O)[C@H](OCc3cccc4ccccc34)[C@H]2NC(=O)c2ccccc2)CC1 (stereo partly shown) [compound 362]
A10: inhibition of radioligand binding, human opioid (ORL1) (Human opioid (ORL1); [125I]-Nociceptin): − (“−” indicates less than 50% inhibition at 10 μM)
A3: inhibition of radioligand binding, human melanocortin (MC3) (Human Melanocortin (MC3); [125I]-NDP-αMSH): − (“−” indicates less than 50% inhibition at 10 μM)
A5: inhibition of radioligand binding, human melanocortin (MC5) (Human melanocortin (MC5); [125I]-NDP-αMSH): − (“−” indicates less than 50% inhibition at 10 μM)
A8: inhibition of radioligand binding, human neurokinin (NK1) (Human neurokinin (NK1); [125I]-Substance P): + (“+” indicates greater than 50% inhibition at 10 μM)
A11: inhibition of radioligand binding, mouse urotensin (mUR2) (Mouse urotensin (mUR2); [125I]-Urotensin II): − (“−” indicates less than 50% inhibition at 10 μM)
A4: inhibition of radioligand binding, human melanocortin (MC4) (Human Melanocortin (MC4); [125I]-NDP-αMSH): − (“−” indicates less than 50% inhibition at 10 μM)
A1: inhibition of radioligand binding, human δ-opioid (DOP) (Human δ-opioid (DOP); [3H]-Bremazocine): − (“−” indicates less than 50% inhibition at 10 μM)
A7: inhibition of radioligand binding, human μ-opioid (MOP) (Human μ-opioid (MOP); [3H]-Naloxone): − (“−” indicates less than 50% inhibition at 10 μM)
A6: inhibition of radioligand binding, human melanin-concentrating hormone (MCH1) ([1]; [125I]-S36057): − (“−” indicates less than 50% inhibition at 10 μM)
A2: inhibition of radioligand binding, human κ-opioid (KOP) (Human κ-Opioid (KOP); [3H]-Diprenorphine): − (“−” indicates less than 50% inhibition at 10 μM)
A9: inhibition of radioligand binding, human neuropeptide Y (NPY-Y1) ([2]; [125I]-PYY): − (“−” indicates less than 50% inhibition at 10 μM)

NCCCC(=O)NC1C(OCc2ccc3ccccc3c2)OC(COCc2ccccc2)C(O)C1OCc1ccc(Cl)cc1 (single isomer, unassigned) [compound 456]
A10: inhibition of radioligand binding (Human opioid (ORL1); [125I]-Nociceptin, human ORL1 membranes, 10 µM): − (“−” indicates less than 50% inhibition at 10 μM)
A3: inhibition of radioligand binding (Human Melanocortin (MC3); [125I]-NDP-αMSH, human MC3 membranes): − (“−” indicates less than 50% inhibition at 10 μM)
A5: inhibition of radioligand binding (Human melanocortin (MC5); [125I]-NDP-αMSH, human MC5 membranes, 10 µM): + (“+” indicates greater than 50% inhibition at 10 μM)
A8: inhibition of radioligand binding (Human neurokinin (NK1); [125I]-Substance P, human NK1 membranes): + (“+” indicates greater than 50% inhibition at 10 μM)
A11: inhibition of radioligand binding (Mouse urotensin (mUR2); [125I]-Urotensin II, mouse mUR2 membranes): − (“−” indicates less than 50% inhibition at 10 μM)
A4: inhibition of radioligand binding (Human Melanocortin (MC4); [125I]-NDP-αMSH, human MC4 membranes, 10 µM): − (“−” indicates less than 50% inhibition at 10 μM)
A1: inhibition of radioligand binding (Human δ-opioid (DOP); [3H]-Bremazocine, human DOP membranes): − (“−” indicates less than 50% inhibition at 10 μM)
A7: inhibition of radioligand binding (Human μ-opioid (MOP); [3H]-Naloxone, human MOP membranes, 10 µM): − (“−” indicates less than 50% inhibition at 10 μM)
A6: inhibition of radioligand binding ([1]; [125I]-S36057, human MCH1 membranes, 10 µM): + (“+” indicates greater than 50% inhibition at 10 μM)
A2: inhibition of radioligand binding (Human κ-Opioid (KOP); [3H]-Diprenorphine, human KOP membranes): − (“−” indicates less than 50% inhibition at 10 μM)
A9: inhibition of radioligand binding ([2]; [125I]-PYY, human NPY-Y1 membranes): − (“−” indicates less than 50% inhibition at 10 μM)

CO[C@H]1[C@H](O)[C@@H](COCc2ccc3ccccc3c2)OC(OCc2ccccc2)[C@@H]1NC(=O)CCCNC(=N)N (stereo partly shown) [compound 89]
A10 radioligand binding inhibition (Human opioid (ORL1); human ORL1 membranes): − (“−” indicates less than 50% inhibition at 10 μM)
A3 radioligand binding inhibition (Human Melanocortin (MC3); human melanocortin MC3 membranes): − (“−” indicates less than 50% inhibition at 10 μM)
A5 radioligand binding inhibition (Human melanocortin (MC5); human melanocortin MC5 membranes): − (“−” indicates less than 50% inhibition at 10 μM)
A8 radioligand binding inhibition (Human neurokinin (NK1); human neurokinin NK1 membranes): + (“+” indicates greater than 50% inhibition at 10 μM)
A11 radioligand binding inhibition (Mouse urotensin (mUR2); mouse urotensin mUR2 membranes): − (“−” indicates less than 50% inhibition at 10 μM)
A4 radioligand binding inhibition (Human Melanocortin (MC4); human melanocortin MC4 membranes): − (“−” indicates less than 50% inhibition at 10 μM)
A1 radioligand binding inhibition (Human δ-opioid (DOP); human δ-opioid (DOP) membranes): − (“−” indicates less than 50% inhibition at 10 μM)
A7 radioligand binding inhibition (Human μ-opioid (MOP); human μ-opioid (MOP) membranes): + (“+” indicates greater than 50% inhibition at 10 μM)
A6 radioligand binding inhibition ([1]; human MCH1 membranes): − (“−” indicates less than 50% inhibition at 10 μM)
A2 radioligand binding inhibition (Human κ-Opioid (KOP); human κ-opioid (KOP) membranes): − (“−” indicates less than 50% inhibition at 10 μM)
A9 radioligand binding inhibition ([2]; human NPY-Y1 membranes): − (“−” indicates less than 50% inhibition at 10 μM)
